“Also recorded” adds a separate entry of the source. Like-named read-outs stand apart in the source and are kept apart here.
Assays:
A2780 ovarian cancer = assay: MTT assay, proliferation inhibition; type: cell-based; details: Homo sapiens, read-out: Proliferation inhibition rate
Description: (§1) 1. Cytotoxicity Assay Using Human Tumor Cell Lines
(§2) Paclitaxel was used as the positive drug.

A375 melanoma = assay: MTT assay, proliferation inhibition; type: cell-based; details: Homo sapiens, A-375, read-out: Proliferation inhibition rate
Description: as §1, §2

[1] = test system: A549 non-small cell lung cancer; assay: MTT assay, proliferation inhibition; type: cell-based; details: Homo sapiens, read-out: Proliferation inhibition rate
Description: as §1, §2

B16 melanoma = assay: MTT assay, proliferation inhibition; type: cell-based; details: read-out: Proliferation inhibition rate
Description: as §1, §2

BGC-823 gastric cancer = assay: MTT assay, proliferation inhibition; type: cell-based; details: Homo sapiens, read-out: Proliferation inhibition rate
Description: as §1, §2

DU145 prostate cancer = assay: MTT assay, proliferation inhibition; type: cell-based; details: Homo sapiens, DU-145, read-out: Proliferation inhibition rate
Description: as §1, §2

HCT 116 colon cancer = assay: MTT assay, proliferation inhibition; type: cell-based; details: Homo sapiens, read-out: Proliferation inhibition rate
Description: as §1, §2

HL60 leukemia = assay: MTT assay, proliferation inhibition; type: cell-based; details: Homo sapiens, HL-60, read-out: Proliferation inhibition rate
Description: as §1, §2

HT29 colon cancer = assay: MTT assay, proliferation inhibition; type: cell-based; details: Homo sapiens, HT-29, read-out: Proliferation inhibition rate
Description: as §1, §2

HeLa cervical cancer = assay: MTT assay, proliferation inhibition; type: cell-based; details: Homo sapiens, read-out: Proliferation inhibition rate
Description: as §1, §2

K562 leukemia = assay: MTT assay, proliferation inhibition; type: cell-based; details: Homo sapiens, read-out: Proliferation inhibition rate
Description: as §1, §2

LNCaP prostate cancer = assay: MTT assay, proliferation inhibition; type: cell-based; details: Homo sapiens, read-out: Proliferation inhibition rate
Description: as §1, §2

MCF-7 breast cancer = assay: MTT assay, proliferation inhibition; type: cell-based; details: Homo sapiens, MCF7, read-out: Proliferation inhibition rate
Description: as §1, §2

MDA-MB-436 breast cancer = assay: MTT assay, proliferation inhibition; type: cell-based; details: Homo sapiens, read-out: Proliferation inhibition rate
Description: as §1, §2

[2] = test system: NCI-H460 non-small cell lung cancer; assay: MTT assay, proliferation inhibition; type: cell-based; details: Homo sapiens, read-out: Proliferation inhibition rate
Description: as §1, §2

[3] = In vivo oral bioavailability assay (pharmacokinetics); design: species or system S.D. rats; details: rat; for AUC(0-t): 0-24 hours; for MRT inf: read-out: MRT0-∞
Description: 3. In Vivo Oral Bioavailability Assay
The compound PCMI-31 was synthesized and detected according to the methods provided in the present invention. The internal standard, paclitaxel, was purchased from China's National Institute for the Control of Pharmaceutical and Biological Products (NICPBP). Chromatography-grade acetonitrile was purchased from Sigma-Aldrich Inc. Tween 80 and ethyl acetate were purchased from Aladdin reagent Inc. Male S.D. rats were purchased from Beijing Weitonglihua Inc. and raised in animal house for two weeks.
200 mg of PCMI-31 was dissolved in 4 ml of a mixed solution of Tween 80 and anhydrous ethanol (1:1) to prepare a stock solution at 50 mg/ml and normal saline was added to adjust to a suitable concentration. 12 male S.D. rats (about 300 g of body weight) were taken and divided into two groups after overnight fasting. One group was treated with intravenous injection (5 mg/kg) and the other group was treated orally (60 mg/kg). Blood was sampled in the intravenous group at 0th min, 5th min, 10th min, 20th min, 40th min, 1st h, 2nd h, 4th h, 6th h, 8th h, 12th h, 24th h, while the oral group at 5th min, 15th min, 30th min, 45th min, 1st h, 2nd h, 4th h, 6th h, 8th h, 12th h, 24th h. After 10 min centrifugation of plasma at 4500 rpm, the upper serum was taken and transferred to the corresponding EP tube, placed in a −40° C. freezer for assay.
Agilent 1100 series configuration: Agilent G1313A HPLC autosampler device, 150 mm×2.1 mm C18 Thermo column (particle size 3 μm) reversed-phase column, detection wavelength at 230 nm, column temperature at 30° C., mobile phase of acetonitrile/water (7:3), a flow rate at 0.2 ml/min, injection volume of 20 μl. The mass spectrometry (MS) combined was Thermo Finnigan TSQ Quantum triple quadrupole configurated with electrospray ionization (ESI) in the positive ion mode. The parameters of MS analysis were as follows: spray chamber voltage, 4.0 kv; heated capillary temperature, 350° C.; protective gas (nitrogen); 20 psi; auxiliary gas (nitrogen): 5 psi; collision gas (argon); pressure: 1.5 mmTorr.; Collision energy: CA 17 eV; FA and IFA were 19 eV: IS was 15 eV.
Paclitaxel was selected as an internal standard with a retention time of 3.07 min. Retention time of PCMI-31 was 4.21 min. MS detection condition to PCMI-31 was set as follows: 915→634 m/z; paclitaxel as an internal standard. Detection conditions: 876→308m/z. The concentration range of the standard curve of PCMI-31 was 5-10,000 ng/ml (γ^2>0.99) and the minimum detection limit was 5 ng/ml.
100 μL of plasma samples were taken, into which 100 μL of the internal standard (paclitaxel, 500 ng/ml acetonitrile solution) was added, followed by addition of 3 ml of ethyl acetate after well homogenized via vortex, after 5 min shaking, centrifuging for 8 min at a rotating speed of 4500 rpm. The supernatant was transferred to a clean EP tube with nitrogen to blow to dry under heating condition. After reconstitution with 120 μl mobile phase (CH3CN/H2O=7:3), the solution was centrifuged at 12,000 rpm for 3 min, 100 μl of supernatant was taken and transferred to an autosampler vial. After LC-MS/MS detection, statistical data and pharmacokinetic parameters were processed by Xcallbur® (version 1.3) software (Thermo Finnigan).

[4] = Caco-2 cell monolayer membrane transport assay; details: human; for recovery: Caco-2, Recovery rate in mass
Description: (§3) Caco-2 Cell Monolayer Membrane Transport Assay
(§4) Human-derived colorectal adenocarcinoma cell line Caco-2 cell monolayer model was used to study the bidirectional transport of the target compounds from the apical (AP) side to the basolateral (BL) side and from BL side to AP side. HPLC was used for quantitative analysis to calculate transport parameters, apparent permeability coefficient (Papp) and the efflux ratio.

Caco-2 cell monolayer = Caco-2 cell monolayer membrane transport assay; details: Caco-2 monolayer
Description: as §3, §4

[5] = male, S.D., plasma, intravenous administration 5 mg/kg
[6] = male, S.D., plasma, oral administration 60 mg/kg

CO[C@H]1C(=O)[C@]2(C)[C@@H](OC(=O)N(C)C)C[C@H]3OC[C@@]3(OC(C)=O)[C@H]2[C@H](OC(=O)c2ccccc2)[C@]2(O)C[C@H](OC(=O)[C@H](O)[C@@H](NC(=O)OC(C)(C)C)c3ccccc3)C(C)=C1C2(C)C [PCMI-31]
inhibition at 1 µM (A2780 ovarian cancer): 95.6%
inhibition at 1 µM (A375 melanoma): 88.4%
inhibition at 1 µM [1]: 76%
inhibition at 1 µM (B16 melanoma): 81.8%
inhibition at 1 µM (BGC-823 gastric cancer): 96.2%
inhibition at 1 µM (DU145 prostate cancer): 85.8%
inhibition at 1 µM (HCT 116 colon cancer): 60.7%
inhibition at 1 µM (HL60 leukemia): 97.8%
inhibition at 1 µM (HT29 colon cancer): 89.4%
inhibition at 1 µM (HeLa cervical cancer): 103%
inhibition at 1 µM (K562 leukemia): 93.2%
inhibition at 1 µM (LNCaP prostate cancer): 82.2%
inhibition at 1 µM (MCF-7 breast cancer): 90.8%
inhibition at 1 µM (MDA-MB-436 breast cancer): 86.3%
inhibition at 1 µM [2]: 87.7%
half-life ([3]; male, S.D., plasma, other: oral or intravenous administration, generally, oral or intravenous administration, read-out: half-life (converted)): ~3 h
AUC(0-t) ([3]; male, S.D., plasma, intravenous 5 mg/kg): 3310 ± 1330 ng·h/mL
AUC(0-inf) [3, 5]: 3320 ± 1330 ng·h/mL
Cmax [3, 5]: 7990 ± 3470 ng/mL
Tmax [3, 5]: 0 h
MRT inf [3, 5]: 2.58 ± 0.87 h
half-life ([3]; male, S.D., plasma, intravenous administration 5 mg/kg, read-out: t1/2 (converted)): 3.21 ± 0.53 h
AUC(0-t) ([3]; male, S.D., plasma, oral 60 mg/kg): 4250 ± 2480 ng·h/mL
AUC(0-inf) [3, 6]: 4270 ± 2490 ng·h/mL
Cmax [3, 6]: 922 ± 561 ng/mL
Tmax [3, 6]: 0.8 ± 0.2 h
MRT inf [3, 6]: 4.33 ± 0.74 h
half-life ([3]; male, S.D., plasma, oral administration 60 mg/kg, read-out: t1/2 (converted)): 2.97 ± 0.55 h
bioavailability ([3]; male, S.D., plasma, oral, 60 mg/kg, oral 60 mg/kg vs intravenous 5 mg/kg, read-out: F, absolute oral bioavailability): 10.7%
F, absolute oral bioavailability ([3]; oral 60 mg/kg vs intravenous 5 mg/kg): 10.71%
Papp B→A ([4]; Caco-2): 26 ×10⁻⁶ cm/s
efflux ratio ([4]; Caco-2): 1.73
Papp A→B ([4]; Caco-2, Papp A-B, Caco-2 cell line (21 days), bidirectional transport, Table 5): 15 ×10⁻⁶ cm/s
Papp A→B ([4]; Caco-2, Papp A-B, Mean, Caco-2, A-B, mean of two samples): 10.6 ×10⁻⁶ cm/s
Papp A→B ([4]; Caco-2, Papp A-B, Sample-01, Caco-2, A-B, Sample-01): 11.2 ×10⁻⁶ cm/s
Papp A→B ([4]; Caco-2, Papp A-B, Sample-02, Caco-2, A-B, Sample-02): 9.91 ×10⁻⁶ cm/s
Papp A→B ([4]; Caco-2, Papp A-to-B, Caco-2): > 10 ×10⁻⁶ cm/s
recovery ([4]; Mean, Caco-2, A-B, mean of two samples): 86.8%
recovery ([4]; Sample-01, Caco-2, A-B, Sample-01): 83%
recovery ([4]; Sample-02, Caco-2, A-B, Sample-02): 90.6%
membrane permeability (in words) (Caco-2 cell monolayer): highly permeable substrates; also recorded: highest membrane permeability

From US10253007B2, “Taxanes compounds, preparation method therefor, and uses thereof” (Jiangsu Tasly Diyi Pharmaceutical Co., Ltd., priority 2013, dated 2019)
